In US20220281930A1, “COMPOSITIONS AND METHODS FOR THE TREATMENT OF PATHOLOGICAL PAIN AND ITCH” (DUKE UNIVERSITY, priority 2019, published 2022):

What was measured:
δ-cat = assay: Nuclear transfer of transfected human δ-cat in N2a cells; type: cell-based, mouse; conditions: mutation vs δ-cat(WT), without KP
From the text: (§1) Plasmid containing human δ-catenin (CTNND2, NM_001288717) open reading frame was obtained from GeneCopeia (EX-A4285-M02) and cloned into pCMV-ENTER vector (Origene PS100001). Site-directed mutagenesis using Phusion DNA Polymerase enzyme (Thermofisher F549L) in conjunction with complementary primers bearing the specific mutation were used to generate the S276A […] mutation S276A. PCR was followed by Dpn1 enzyme digestion to remove parental plasmid DNA. All constructs were verified by sequencing. pCS-CMV-tdTomato plasmid was obtained from Addgene (cat. #30530).
To investigate the relevance of δ-cat residue S276, N2a neural cells were studied because these cells transfect at higher efficiency than primary cortical neurons. In our cultures, N2a cells expressed neuronal ßIII-tubulin in elongated processes as determined by immune-labeling as an indicator of their neuronal differentiation. […] This increase in nuclear transfer was very similar to the trafficking we recorded in primary cortical neurons, thus validating the cell line. […] Of note, there was no increase of nuclear transfer of δ-cat(S276A) upon KP treatment (FIG. 8C and FIG. 8D).

KCC2 mRNA [1] = assay: KCC2 mRNA in differentiated N2a cells transfected with δ-cat constructs; type: cell-based, mouse; conditions: δ-cat construct vs control transfection
From the text: as §1
Total RNA was isolated from cultured cell samples using Directzol RNA miniprep kit (ZymoResearch). The protocol includes DNAse digestion to exclude genomic DNA from preparations. […] Gene expression was assessed by quantitative real-time PCR using 2×SYBR Green Master Mix (Qiagen) and a three-step cycling protocol (anneal at 60° C./elongate at 72° C., denature at 95° C.). […] The amount of target messenger RNA (mRNA) in the experimental group relative to that in the control was determined from the resulting fluorescence and threshold values (Ct) using the ΔΔCt method. βIII-tubulin was used as housekeeping gene.
Next, the question of whether δ-cat, when expressed as a spinal transgene in sensory relay neurons, will facilitate analgesia in nerve constriction injury was assessed. […]

nerve injury pain = assay: Nerve constriction injury (PSNL) pain model, mechanical withdrawal; type: in vivo, mouse
Method: For pain-related behavior, mechanical allodynia was assessed with von Frey filaments (Ugo Basile, Italy). The mice were placed on a 5×5-mm wire-mesh grid floor in individual compartments to avoid visual stimulation and allowed to adapt for 0.5 h prior to the von Frey test. The von Frey filament was then applied to the middle of the plantar surface of the hind paw with 5 g force. The withdrawal responses following the hind paw stimulation were measured at least three times, and the mechanical allodynia, which was defined as an increase in the number of withdrawal responses to the stimulation, was compared.
Thus, in vivo, KP functions as an analgesic when administered systemically in injury-related pain models.
Next, whether the analgesic effects of KP were mediated centrally at the spinal cord level was assessed.
Mechanical withdrawal was measured thresholds after nerve constriction injury (PSNL) (FIG. 12B and FIG. 12C). […] Thus, δ-cat(S276A) spinal transgenesis via AAV9 is sufficient to evoke analgesia after nerve constriction injury, to lesser degree also with δ-cat(WT). Importantly, δ-cat(S276A) spinal transgenesis was accompanied by increased expression of KCC2 in the SCDH. […] Moreover, our discovery points toward a genetically-encoded approach that can be developed for translation into clinical use as an alternative or complement to KP-related small molecules.

KCC2 mRNA [2] = assay: KCC2 mRNA RT-qPCR in microdissected spinal cord dorsal horn; type: in vivo, mouse; conditions: AAV9 i.t; vs tdTomato control
Method: oligodT-initiated reverse transcription of 1 μg total RNA, DNA-se treated, was subjected to RT-qPCR using primers specific for KCC2 for rat and KCC2 for human sequences, normalized for neuronal βIII-tubulin, as previously described (Yeo et al., 2009, J Neurosci 29:14652-14662). For cultured neurons, total RNA was extracted from pelleted cells, and for spinal cord tissue it was extracted from microdissected lumbar spinal cord dorsal horn.
With the aforementioned findings and in view of the SCDH as the likely site of analgesic action of KP (Coull et al., 2003, Nature 424:938-942; Gagnon et al., 2013, Nat Med 19:1524-1528), SCDH KCC2 expression and function in nerve injury and response to KP was assessed. […] To measure KCC2 mRNA, SCDH Rexed-layers I-II were microdissected with laser capture followed by RT-qPCR. SCDH KCC2 protein expression was measured morphometrically after KCC2 immunolabeling using SCDH laminae I-II as the region-of-interest (FIG. 5B).

KCC2 mRNA [3] = assay: KCC2 mRNA RT-qPCR in rat primary cortical neurons; type: cell-based; conditions: rat primary cortical neurons; dose-dependent, FIG. 10
Method: Total RNA was isolated from cultured cell samples using Directzol RNA miniprep kit (ZymoResearch). The protocol includes DNAse digestion to exclude genomic DNA from preparations. Total RNA (1 μg) was reverse transcribed using oligo primers (dT) and SuperScriptIII first-strand synthesis kit (Invitrogen). Gene expression was assessed by quantitative real-time PCR using 2×SYBR Green Master Mix (Qiagen) and a three-step cycling protocol (anneal at 60° C./elongate at 72° C., denature at 95° C.). Specificity of primers was verified by dissociation/melting curve for the amplicons when using SYBR Green as a detector. All reactions were performed in triplicates. The amount of target messenger RNA (mRNA) in the experimental group relative to that in the control was determined from the resulting fluorescence and threshold values (Ct) using the ΔΔCt method. βIII-tubulin was used as housekeeping gene. oligodT-initiated reverse transcription of 1 μg total RNA, DNA-se treated, was subjected to RT-qPCR using primers specific for KCC2 for rat and KCC2 for human sequences, normalized for neuronal βIII-tubulin, as previously described (Yeo et al., 2009, J Neurosci 29:14652-14662). For cultured neurons, total RNA was extracted from pelleted cells, and for spinal cord tissue it was extracted from microdissected lumbar spinal cord dorsal horn.

neuronal [Cl—]i = assay: Clomeleon chloride imaging in rat primary cortical neurons; type: cell-based; conditions: VU0240551 2.5 μM add-on; both vehicle-treated and KP-treated
Method: Chloride imaging of primary cultured cortical neurons was conducted as previously described (Kuner and Augustine, 2000, Neuron 27:447-459; Liedtke et al., 2013, Small 9:1066-1075; Yeo et al., 2009, J Neurosci 29:14652-14662). A Clomeleon expression plasmid was transfected into primary cortical neurons by electroporation (Amaxa Nucleofector Device). Transfected neurons were verified by yellow fluorescent protein (YFP) fluorescence, and ratiometric images (excitation at λ=434 nm, dual emission at λ=485 and 535 nm; for resting chloride, six stable frames at […] were captured, which were averaged) were acquired using RATIOTOOL program. Calibration of Clomeleon signals (535 nm/485 nm emission ratio) was performed by using tributyltin-nigericin to establish a standard curve, which was then normalized for measured intraneuronal pH to take into account the pH sensitivity of Clomeleon.

Compound: δ-cat(S276A): human δ-catenin S276A mutant transgene (SEQ ID NO:32), as plasmid or AAV9 vector driven by human synapsin promoter
- nuclear transfer of the transfected construct (δ-cat): increases nuclear transfer
- KCC2 mRNA expression (KCC2 mRNA [1]): slightly elevated
- mechanical withdrawal thresholds after PSNL (nerve injury pain; AAV9-huSyn, 5×10^9 viral genomes i.t, vs tdTomato control, to d18): Significantly less sensitization
- KCC2 mRNA in microdissected SCDH (KCC2 mRNA [2]): significantly increased

Compound: O=C1[C@H](Cc2ccc(O)cc2)N2C(=O)CCN(C(=O)NCc3ccccc3)[C@H]2CN1Cc1cccc2ccccc12 [ICG-001]
- KCC2 mRNA expression (KCC2 mRNA [3]): significantly decreases

Compound: Cc1csc(NC(=O)CSc2ccc(-c3ccccc3)nn2)n1 [VU0240551]
- [Cl—]i with add-on KCC2-transport blocker (neuronal [Cl—]i): ≥ 120 mM
- effect of i.t co-application with KP on KP analgesia (nerve injury pain; day 7, 3 h, 4 h, 5 h after i.t injection): eliminates the central analgesic effects of KP
